# Measured values published in US8772489B2, “Optically active 2-hydroxy tetrahydrothienopyridine derivatives, preparation method and use in manufacture of medicament thereof” (Jiangsu Vcare PharmaTech Co. Ltd., priority 2010, dated 2014).
# “And” between values parts separate entries of the source, which are not always exact repeats. Equal values may be shown once. Where a name gives a salt, the structure may show the parent alone. Read-outs that look alike come from different tables or passages of the source.
# Columns and labels:
# [1] = tested on: platelet aggregation; assay: animal or person; assay type: in vivo; details: Rattus norvegicus, read-out: Aggregation inhibition (%)
# Source text: The positive control and the test compounds (prepared in the above examples) were formulated in 0.5% CMC-Na (carboxymethylcellulose sodium) into suspensions for administration to animals.
# Animals: male SD rats, weighed about 250 g, and supplied by Shanghai Super-B&K Laboratory Animal Corp. Ltd. Animal certificate No.: 2008001605451, and license No.: SCXK (Hu); SCXK (Hu) 2008-0016.
# Instruments: a centrifuge (80-2 bench top low-speed centrifuge), an automatic platelet aggregation tester (STELLEXLG-PAPER-I platelet coagulation/aggregation analyzer), and others.
# Methods: the pharmacological activity test of the compounds of the present invention for platelet aggregation was performed following Born's turbidimetric method (Nature, 1962, 194(4832): 927). An agglomeration-promoting substance, adenosine diphosphate (ADP), was added to a platelet rich plasma (PRP), and stirred to allow platelets to aggregate. […] This experiment can be used to evaluate the platelet aggregation effect induced by the test compounds administrated in-vivo or in-vitro.
# The PRP was adjusted with a platelet poor plasma (PPP) to maintain the platelet counts at […]. The PRP was taken into a test cup, and incubated at 37° C. for 10 min. Light transmission was adjusted to 0% with PRP and to 100% with PPP for each measurement. By using ADP (with a final concentration of 5 μM) as an inducer, the platelet aggregation percentages were measured through the turbidimetric method using a platelet aggregation tester, and statistically compared by t-test. The platelet aggregation inhibition was calculated by the equation: platelet aggregation inhibition (%)=[1−(aggregation percent in dosed tube/aggregation percent in control tube)]×100%.
# [2] = Pharmacokinetics and bioavailability of Compound I-2 in rats (plasma Compound IV-1 by LC-MS/MS); assay type: in vivo, rat; details: for Concentration of Compound IV-1 in plasma, single animals / concentration at 0.08 h / concentration at 0.167 h / concentration at 0.5 h / concentration at 1 h / concentration at 2 h / concentration at 4 h / concentration at 6 h: intravenous injection 8 μmol/kg; for concentration at 0.08 h / concentration at 0.167 h / concentration at 0.5 h / concentration at 1 h / concentration at 2 h / concentration at 4 h / concentration at 6 h: 8 μmol/kg
# Source text: The rats were fasted overnight, but allowed free access to water.
# [3] = male SD rats, oral gavage 3 mg/kg, blood after 2 hrs, ADP 5 μM
# [4] = male SD rats, oral gavage 10 mg/kg, blood after 2 hrs, ADP 5 μM
# [5] = SD rats, intravenous injection 8 μmol/kg (2.7 mg/kg), individual animal
structure (smiles),measurement,setting,value
"COC(=O)C(c1ccccc1Cl)N1CCc2sc(OC(C)=O)cc2C1 (racemic) [I-2″, (R,S)-Methyl 2-(2-acetoxy-6,7-dihydrothieno[3,2-c]pyridin-5(4H)-yl)-2-(2-chlorophenyl)-acetate]",inhibition at 3 mg/kg,[1]; [3],43.9%
same,inhibition at 10 mg/kg,[1]; [4],78.5%
"COC(=O)C(c1ccccc1Cl)N1CCc2sc(OC(=O)N(C)C)cc2C1 (racemic) [I-18′, (R,S)-Methyl 2-(2-(N,N-dimethylcarbamoyloxy)-6,7-dihydrothieno[3,2-c]pyridin-5(4H)-yl)-2-(2-chlorophenyl)-acetate]",inhibition at 3 mg/kg,"[1]; po, 2 h",29.8%
"COC(=O)[C@H](c1ccccc1Cl)N1CCc2sccc2C1 [Clopidogrel sulfate, reference compound]",inhibition at 3 mg/kg,"[1]; po, 2 h",15.4%
same,inhibition at 10 mg/kg,"[1]; po, 2 h",79.6%
"COC(=O)[C@H](c1ccccc1Cl)N1CCc2sc(OC(C)=O)cc2C1 [Compound I-2, (S)-Methyl 2-(2-acetoxy-6,7-dihydrothieno[3,2-c]pyridin-5(4H)-yl)-2-(2-chlorophenyl)-acetate]",inhibition at 3 mg/kg,[1]; [3],69.9%
same,inhibition at 10 mg/kg,[1]; [4],83.5%
"CCC(=O)Oc1cc2c(s1)CCN([C@H](C(=O)OC)c1ccccc1Cl)C2 [Compound I-3, (S)-Methyl 2-(2-propanoyloxy-6,7-dihydrothieno[3,2-c]pyridin-5(4H)-yl)-2-(2-chlorophenyl)-acetate]",inhibition at 3 mg/kg,[1]; [3],38.4%
"CCCC(=O)Oc1cc2c(s1)CCN([C@H](C(=O)OC)c1ccccc1Cl)C2 [Compound I-4, (S)-methyl 2-(2-butanoyloxy-6,7-dihydrothieno[3,2-c]pyridin-5 (4H)-yl)-2-(2-chlorophenyl)-acetate]",inhibition at 3 mg/kg,[1]; [3],46.2%
"COC(=O)[C@H](c1ccccc1Cl)N1CCc2sc(OC(=O)c3ccccc3OC(C)=O)cc2C1 [Compound I-5, (S)-methyl 2-(2-(2-acetoxybenzoyloxy)-6,7-dihydrothieno[3,2-c]pyridin-5(4H)-yl)-2-(2-chlorophenyl)-acetate]",inhibition at 3 mg/kg,"[1]; po, 2 h",55.1%
"COC(=O)[C@H](c1ccccc1Cl)N1CCc2sc(OC(=O)C(C)(C)C)cc2C1 [Compound I-7, (S)-methyl 2-(2-pivaloyloxy-6,7-dihydrothieno[3,2-c]pyridin-5(4H)-yl)-2-(2-chlorophenyl)-acetate]",inhibition at 3 mg/kg,[1]; [3],41.9%
"COC(=O)[C@H](c1ccccc1Cl)N1CCc2sc(OC(=O)c3ccc(OC)cc3)cc2C1 [Compound I-11, (S)-Methyl 2-(2-(4-methoxybenzoyloxy)-6,7-dihydrothieno[3,2-c]pyridin-5(4H)-yl)-2-(2-chlorophenyl)-acetate]",inhibition at 3 mg/kg,[1]; [3],13.6%
"COC(=O)[C@H](c1ccccc1Cl)N1CCc2sc(OC(=O)Cc3ccccc3)cc2C1 [Compound I-12, (S)-Methyl 2-(2-phenylacetoxy-6,7-dihydrothieno[3,2-c]pyridin-5(4H)-yl)-2-(2-chlorophenyl)-acetate]",inhibition at 3 mg/kg,[1]; [3],18.3%
"COC(=O)[C@H](c1ccccc1Cl)N1CCc2sc(OC(=O)OCC(C)C)cc2C1 [Compound I-15, (S)-Methyl 2-(2-(isobutoxycarbonyloxy)-6,7-dihydrothieno[3,2-c]pyridin-5(4H)-yl)-2-(2-chlorophenyl)-acetate]",inhibition at 3 mg/kg,[1]; [3],45.3%
"COC(=O)[C@H](c1ccccc1Cl)N1CCC2SC(=O)C=C2C1 (stereo partly drawn) [IV-1, (2S)-Methyl 2-(2-oxo-7,7a-dihydrothieno[3,2-c]pyridin-5 (2H,4H,6H)-yl)-2-(2-chlorophenyl)-acetate]","AUC0-t of Compound IV-1, single animals",[2]; [5],304 ng·h/mL and 229 ng·h/mL
same,"AUC0-∞ of Compound IV-1, single animals",[2]; [5],306 ng·h/mL and 229 ng·h/mL
same,"CLtot of Compound IV-1, single animals",[2]; [5],147 mL/min/kg and 197 mL/min/kg
same,"Cmax of Compound IV-1, single animals",[2]; [5],785 ng/mL and 533 ng/mL
same,"V2 of Compound IV-1, single animals",[2]; [5],18.8 L/kg and 15.9 L/kg and 10.9 L/kg
same,"t1/2 of Compound IV-1, single animals",[2]; [5],78 min and 75 min and 38.6 min
same,"V2 of Compound IV-1, Mean","[2]; SD rats, intravenous injection 8 μmol/kg (2.7 mg/kg), mean of 3",15.2 L/kg
same,"Concentration of Compound IV-1 in plasma, single animals","[2]; SD rats, 0.08 h, individual animal",785 ng/mL and 533 ng/mL
same,"Concentration of Compound IV-1 in plasma, single animals","[2]; SD rats, 0.167 h, individual animal",417 ng/mL and 311 ng/mL
same,"Concentration of Compound IV-1 in plasma, single animals","[2]; SD rats, 0.5 h, individual animal",129 ng/mL and 107 ng/mL
same,"Concentration of Compound IV-1 in plasma, single animals","[2]; SD rats, 1 h, individual animal",49.3 ng/mL and 37.3 ng/mL
same,"Concentration of Compound IV-1 in plasma, single animals","[2]; SD rats, 2 h, individual animal",9.06 ng/mL and 9.74 ng/mL
same,"Concentration of Compound IV-1 in plasma, single animals","[2]; SD rats, 4 h, individual animal",2.87 ng/mL and 2.02 ng/mL
same,"Concentration of Compound IV-1 in plasma, single animals","[2]; SD rats, 6 h, individual animal",0.977 ng/mL and 1.06 ng/mL
same,AUC(0-t),"[2]; male, SD, rat, plasma, iv, 2.7 mg/kg, intravenous injection 8 μmol/kg (2.7 mg/kg), individual animal, read-out: AUC0-t of Compound IV-1, single animals",266 ng·h/mL
same,AUC(0-inf),"[2]; male, SD, rat, plasma, iv, 2.7 mg/kg, intravenous injection 8 μmol/kg (2.7 mg/kg), individual animal, read-out: AUC0-∞ of Compound IV-1, single animals",269 ng·h/mL
same,clearance,"[2]; male, SD, rat, plasma, iv, 2.7 mg/kg, intravenous injection 8 μmol/kg (2.7 mg/kg), individual animal, read-out: CLtot of Compound IV-1, single animals (converted)",167 mL/min/kg
same,Cmax,"[2]; male, SD, rat, plasma, iv, 2.7 mg/kg, intravenous injection 8 μmol/kg (2.7 mg/kg), individual animal, read-out: Cmax of Compound IV-1, single animals",696 ng/mL
same,clearance,"[2]; male, SD, rat, plasma, iv, 2.7 mg/kg, intravenous injection 8 μmol/kg (2.7 mg/kg), mean of 3, read-out: CLtot of Compound IV-1, Mean (converted)",170 mL/min/kg
same,Tmax,"[2]; male, Sprague-Dawley, rat, plasma, 8 umol/kg, SD rats, intravenous injection 8 μmol/kg (2.7 mg/kg), mean of 3, read-out: Tmax of Compound IV-1, Mean",4.98 min
same,AUC(0-t),"[2]; male, Sprague-Dawley, rat, plasma, iv, 8 umol/kg, SD rats, intravenous injection 8 μmol/kg (2.7 mg/kg), mean of 3, read-out: AUC0-t of Compound IV-1, Mean",266 ± 37.6 ng·h/mL
same,AUC(0-inf),"[2]; male, Sprague-Dawley, rat, plasma, iv, 8 umol/kg, SD rats, intravenous injection 8 μmol/kg (2.7 mg/kg), mean of 3, read-out: AUC0-∞ of Compound IV-1, Mean",268 ± 38.3 ng·h/mL
same,Cmax,"[2]; male, Sprague-Dawley, rat, plasma, iv, 8 umol/kg, SD rats, intravenous injection 8 μmol/kg (2.7 mg/kg), mean of 3, read-out: Cmax of Compound IV-1, Mean",671 ± 128 ng/mL
same,half-life,"[2]; male, Sprague-Dawley, rat, plasma, iv, 8 umol/kg, SD rats, intravenous injection 8 μmol/kg (2.7 mg/kg), mean of 3, read-out: t1/2 of Compound IV-1, Mean (converted)",63.6 ± 21.8 min
same,concentration at 0.08 h,"[2]; male, Sprague-Dawley, rat, plasma, iv, SD rats, 0.08 h, individual animal, read-out: Concentration of Compound IV-1 in plasma, single animals",696 ng/mL
same,concentration at 0.08 h,"[2]; male, Sprague-Dawley, rat, plasma, iv, SD rats, 0.08 h, mean of 3, read-out: Concentration of Compound IV-1 in plasma, Mean",671 ng/mL
same,concentration at 0.167 h,"[2]; male, Sprague-Dawley, rat, plasma, iv, SD rats, 0.167 h, individual animal, read-out: Concentration of Compound IV-1 in plasma, single animals",317 ng/mL
same,concentration at 0.167 h,"[2]; male, Sprague-Dawley, rat, plasma, iv, SD rats, 0.167 h, mean of 3, read-out: Concentration of Compound IV-1 in plasma, Mean",348 ng/mL
same,concentration at 0.5 h,"[2]; male, Sprague-Dawley, rat, plasma, iv, SD rats, 0.5 h, individual animal, read-out: Concentration of Compound IV-1 in plasma, single animals",108 ng/mL
same,concentration at 0.5 h,"[2]; male, Sprague-Dawley, rat, plasma, iv, SD rats, 0.5 h, mean of 3, read-out: Concentration of Compound IV-1 in plasma, Mean",115 ng/mL
same,concentration at 1 h,"[2]; male, Sprague-Dawley, rat, plasma, iv, SD rats, 1 h, individual animal, read-out: Concentration of Compound IV-1 in plasma, single animals",51 ng/mL
same,concentration at 1 h,"[2]; male, Sprague-Dawley, rat, plasma, iv, SD rats, 1 h, mean of 3, read-out: Concentration of Compound IV-1 in plasma, Mean",45.9 ng/mL
same,concentration at 2 h,"[2]; male, Sprague-Dawley, rat, plasma, iv, SD rats, 2 h, individual animal, read-out: Concentration of Compound IV-1 in plasma, single animals",10.9 ng/mL
same,concentration at 2 h,"[2]; male, Sprague-Dawley, rat, plasma, iv, SD rats, 2 h, mean of 3, read-out: Concentration of Compound IV-1 in plasma, Mean",9.9 ng/mL
same,concentration at 4 h,"[2]; male, Sprague-Dawley, rat, plasma, iv, SD rats, 4 h, individual animal, read-out: Concentration of Compound IV-1 in plasma, single animals",3.94 ng/mL
same,concentration at 4 h,"[2]; male, Sprague-Dawley, rat, plasma, iv, SD rats, 4 h, mean of 3, read-out: Concentration of Compound IV-1 in plasma, Mean",2.94 ng/mL
same,concentration at 6 h,"[2]; male, Sprague-Dawley, rat, plasma, iv, SD rats, 6 h, individual animal, read-out: Concentration of Compound IV-1 in plasma, single animals",1.29 ng/mL
same,concentration at 6 h,"[2]; male, Sprague-Dawley, rat, plasma, iv, SD rats, 6 h, mean of 3, read-out: Concentration of Compound IV-1 in plasma, Mean",1.11 ng/mL
same,Tmax,"[2]; male, rat, plasma, SD rats, intravenous injection 8 μmol/kg (2.7 mg/kg), individual animal, read-out: Tmax of Compound IV-1, single animals",4.98 min
